Results reported in ChEMBL document CHEMBL6120962, “New Mitochondria-Targeted Fisetin Derivative Compromises Mitophagy and Limits Survival of Drug-Induced Senescent Breast Cancer Cells” (J Med Chem, 2024).
Calls of active or inactive are those of the source. No cut-off for these calls is given here.

How the values were obtained:
[1] = test system: CAMA-1; assay: Anticancer activity against ER-positive human CAMA-1 cells assessed as effect on metabolic activity upto 10 uM incubated for 24 hrs by MTT assay; assay type: functional, cell-based
[2] = test system: BJ; assay: Cytotoxicity against human BJ cells assessed as effect on metabolic activity at 1 to 10 uM incubated for 24 hrs by MTT assay; assay type: toxicity, cell-based; conditions: dose 1-10 µM
[3] = test system: Mitochondrial membrane; assay: Induction of mitochondrial membrane potential depolarization in tamoxifen-induced senescent human ZR-75-30 cells assessed as increase in depolarized dead cell level at 1 to 5 uM incubated for 24 hrs by 7-AAD staining based flow cytometric analysis; assay type: cell membranes; conditions: dose 1-5 µM
[4] = test system: HCC1428; assay: Induction of mitochondrial dysfunction in tamoxifen-induced senescent human HCC1428 cells assessed as decrease in maximal respiration at 5 uM incubated for 6 hrs by real-time analysis; assay type: functional, cell-based
[5] = test system: HCC1428; assay: Induction of mitochondrial dysfunction in tamoxifen-induced senescent human HCC1428 cells assessed as decrease in coupling efficiency respiration at 5 uM incubated for 6 hrs by real-time analysis; assay type: functional, cell-based
[6] = test system: MCF-10F; assay: Induction of mitochondrial dysfunction in human MCF-10F cells assessed as decrease in coupling efficiency at 5 uM incubated for 6 hrs by real time analysis; assay type: functional, cell-based
[7] = test system: MCF-10F; assay: Induction of mitochondrial dysfunction in human MCF-10F cells assessed as increase in proton leak at 5 uM incubated for 6 hrs by real time analysis; assay type: functional, cell-based
[8] = test system: HCC1428; assay: Induction of ubiquitin-dependent mitophagy in tamoxifen-induced senescent human HCC1428 cells assessed as increase in PINK1 level at 5 uM by immunostaining based imaging cytometric analysis; assay type: functional, cell-based
[9] = test system: HCC1428; assay: Induction of autophagosome formation in tamoxifen-induced senescent human HCC1428 cells assessed as increase in ubiquitin level at 1 to 5 uM by immunostaining based imaging cytometric analysis; assay type: functional, cell-based; conditions: dose 1-5 µM
[10] = test system: HCC1428; assay: Induction of autophagy in tamoxifen-induced senescent human HCC1428 cells assessed as increase in VPS34 level at 1 to 5 uM by immunostaining based imaging cytometric analysis; assay type: functional, cell-based; conditions: dose 1-5 µM
[11] = test system: HCC1428; assay: Induction of alternative mitophagy in tamoxifen-induced senescent human HCC1428 cells assessed as increase in Rab9 level at 1 to 5 uM by immunostaining based imaging cytometric analysis; assay type: functional, cell-based; conditions: dose 1-5 µM
[12] = test system: CAMA-1; assay: Induction of oxidative stress in tamoxifen-induced senescent human CAMA-1 cells assessed as increase in mitochondrial superoxide production at 1 to 5 uM incubated for 24 hrs by MitoSOX red superoxide indicator based fluorescence analysis; assay type: functional, cell-based; conditions: dose 1-5 µM
[13] = test system: ZR-75-30; assay: Induction of oxidative stress in tamoxifen-induced senescent human ZR-75-30 cells assessed as increase in mitochondrial superoxide production at 1 to 5 uM incubated for 24 hrs by MitoSOX red superoxide indicator based fluorescence analysis; assay type: functional, cell-based; conditions: dose 1-5 µM
[14] = test system: HCC1428; assay: Induction of oxidative stress in tamoxifen-induced senescent human HCC1428 cells assessed as increase in mitochondrial SOD2 level at 1 to 5 uM incubated for 24 hrs by MitoSOX red superoxide indicator based fluorescence analysis; assay type: functional, cell-based; conditions: dose 1-5 µM
[15] = test system: ZR-75-30; assay: Induction of oxidative stress in tamoxifen-induced senescent human ZR-75-30 cells assessed as increase in mitochondrial SOD2 level at 1 to 5 uM incubated for 24 hrs by MitoSOX red superoxide indicator based fluorescence analysis; assay type: functional, cell-based; conditions: dose 1-5 µM
[16] = test system: HCC1428; assay: Induction of apoptosis in human HCC1428 cells assessed as phosphatidylserine externalization at 1 to 5 uM incubated for 24 hrs by Annexin V-FITC staining based flow cytometric analysis; assay type: functional, cell-based; conditions: dose 1-5 µM
[17] = test system: ZR-75-30; assay: Induction of apoptosis in human ZR-75-30 cells assessed as phosphatidylserine externalization at 1 to 5 uM incubated for 24 hrs by Annexin V-FITC staining based flow cytometric analysis; assay type: functional, cell-based; conditions: dose 1-5 µM
[18] = test system: HCC1500; assay: Induction of apoptosis in tamoxifen-induced senescent human HCC1500 cells assessed as phosphatidylserine externalization at 1 to 5 uM incubated for 24 hrs by Annexin V-FITC staining based flow cytometric analysis; assay type: functional, cell-based; conditions: dose 1-5 µM
[19] = test system: ZR-75-30; assay: Induction of apoptosis in tamoxifen-induced senescent human ZR-75-30 cells assessed as phosphatidylserine externalization at 1 to 5 uM incubated for 24 hrs by Annexin V-FITC staining based flow cytometric analysis; assay type: functional, cell-based; conditions: dose 1-5 µM
[20] = test system: HCC1428; assay: Induction of […] in human tamoxifen-induced senescent human HCC1428 cells at 1 to 5 uM incubated for 24 hrs by Annexin V-FITC staining based flow cytometric analysis; assay type: functional, cell-based; conditions: dose 1-5 µM
[21] = test system: ZR-75-30; assay: Induction of apoptosis in tamoxifen-induced senescent human ZR-75-30 cells assessed as increase in caspase 3 level incubated for 24 hrs by immunostaining based imaging cytometric analysis; assay type: functional, cell-based
[22] = test system: CAMA-1; assay: Induction of apoptosis in human CAMA-1 cells assessed as decrease in Bcl2 level at 1 to 5 uM incubated for 24 hrs by Western blot analysis; assay type: functional, cell-based; conditions: dose 1-5 µM
[23] = test system: HCC1500; assay: Induction of apoptosis in human HCC1500 cells assessed as decrease in Bcl2 level at 1 to 5 uM incubated for 24 hrs by Western blot analysis; assay type: functional, cell-based; conditions: dose 1-5 µM
[24] = test system: HCC1428; assay: Induction of AMPK phosphorylation in tamoxifen-induced senescent human HCC1428 cells incubated for 24 hrs by immunostaining based imaging cytometric analysis; assay type: cell-based; conditions: filed as activator
[25] = test system: ZR-75-30; assay: Induction of AMPK phosphorylation in tamoxifen-induced senescent human ZR-75-30 cells incubated for 24 hrs by immunostaining based imaging cytometric analysis; assay type: cell-based; conditions: filed as activator
[26] = test system: ZR-75-30; assay: Induction of apoptosis in tamoxifen-induced senescent human ZR-75-30 cells assessed as decrease in HSP90 level incubated for 24 hrs by immunostaining based imaging cytometric analysis; assay type: functional, cell-based
[27] = test system: HCC1428; assay: Induction of apoptosis in tamoxifen-induced senescent human HCC1428 cells assessed as decrease in AKT level at 1 to 5 uM incubated for 24 hrs by Western blotting analysis; assay type: functional, cell-based; conditions: dose 1-5 µM
[28] = target: Apoptosis regulator Bcl-2 (Homo sapiens) (UniProt P10415); assay: Binding affinity to recombinant human Bcl-2 assessed as interaction by measuring decrease in chemiluminescence signal at 0.01 to 5 uM incubated overnight by dot-blot analysis; conditions: dose 0.01-5 µM
[29] = test system: HCC1500; assay: Induction of senescence in human HCC1500 cells assessed as […] in beta-galactosidase activity at 5 uM incubated for 24 hrs by immunostaining based imaging cytometric analysis; assay type: functional, cell-based
[30] = test system: CAMA-1; assay: Induction of senescence in human CAMA-1 cells assessed as […] in beta-galactosidase activity at 5 uM incubated for 24 hrs by immunostaining based imaging cytometric analysis; assay type: functional, cell-based
[31] = test system: HCC1428; assay: Induction of senescence in human HCC1428 cells assessed as increase in IL-8 level at 5 uM incubated for 24 hrs by immunostaining based imaging cytometric analysis; assay type: functional, cell-based
[32] = test system: HCC1500; assay: Induction of senescence in human HCC1500 cells assessed as increase in IL-8 level at 5 uM incubated for 24 hrs by immunostaining based imaging cytometric analysis; assay type: functional, cell-based
[33] = test system: CAMA-1; assay: Induction of senescence in human CAMA-1 cells assessed as increase in IL-8 level at 5 uM incubated for 24 hrs by immunostaining based imaging cytometric analysis; assay type: functional, cell-based
[34] = test system: T47D; assay: Antitumor activity against ER-positive human T47D cells xenografted in Danio rerio embryo assessed as decrease in tumor size at 1 to 5 uM administered for 48 hrs by imaging analysis; assay type: functional, cell-based; conditions: dose 1-5 µM
[35] = test system: T47D; assay: Antitumor activity against ER-positive human T47D cells xenografted in Danio rerio embryo assessed as increase in p21 mRNA level at 1 to 5 uM administered for 48 hrs by RT-PCR analysis; assay type: functional, cell-based; conditions: dose 1-5 µM

Apoptosis regulator Bcl-2 (Homo sapiens), sequence (P10415 whole entry): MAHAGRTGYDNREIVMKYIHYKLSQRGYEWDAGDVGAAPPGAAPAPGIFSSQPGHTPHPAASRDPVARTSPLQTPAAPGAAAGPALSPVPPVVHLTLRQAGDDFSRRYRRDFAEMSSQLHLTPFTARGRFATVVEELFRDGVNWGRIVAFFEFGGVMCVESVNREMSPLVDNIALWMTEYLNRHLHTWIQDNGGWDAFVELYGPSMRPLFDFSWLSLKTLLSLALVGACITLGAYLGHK

For `CC(=O)Oc1ccc2c(=O)c(OCCCC[P+](c3ccccc3)(c3ccccc3)c3ccccc3)c(-c3ccc4c(c3)OC(c3ccccc3)(c3ccccc3)O4)oc2c1.[I-]`, the Activity [1] was “Active”, the Activity [2] was “Non-toxic” and the Activity [3] was “Active”. For the same compound, the Activity [4] was “Active”, the Activity [5] was “Active” and the Activity [6] was “inactive”. For the same compound, the Activity [7] was “inactive”, the Activity [8] was “Active” and the Activity [9] was “inactive”. For the same compound, the Activity [10] was “Active”, the Activity [11] was “inactive” and the Activity [12] was “Active”. For the same compound, the Activity [13] was “Active”, the Activity [14] was “Active” and the Activity [15] was “Active”. For the same compound, the Activity [16] was “Active”, the Activity [17] was “Active” and the Activity [18] was “Active”. For the same compound, the Activity [19] was “Active”, the Activity [20] was “Active” and the Activity [21] was “Active”. For the same compound, the Activity [22] was “Active”, the Activity [23] was “Active” and the Activity [24] was “Active”. For the same compound, the Activity [25] was “Active”, the Activity [26] was “Active” and the Activity [27] was “Active”. The Activity [28] was “Active”, the Activity [29] was “Active” and the Activity [30] was “Active”. For the same compound, the Activity [31] was “Active”, the Activity [32] was “inactive” and the Activity [33] was “inactive”. The Activity [34] was “Active” and the Activity [35] was “Active”.
